Measured values as given in ChEMBL document CHEMBL1201862, “PubChem BioAssay data set” (2004).
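Cultured in 96-well plates, cells were exposed to test compound for 48 hours across five concentrations. The concentration for 50% growth inhibition is given as GI50.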 The source made the active and inactive calls. No stated cut-off is given here; in the data, active = GI50 up to about 1.1 µM and inactive = higher.

Assays:
Assay in all cases: NCI tumour cell line growth inhibition, 48 h
786-0 = system: 786-0
A549 = system: A549
CCRF-CEM = system: CCRF-CEM
COLO 205 = system: COLO 205
DU-145 = system: DU-145
HL-60 = system: HL-60
HOP-92 = system: HOP-92
MDA-MB-435 = system: MDA-MB-435
MOLT-4 = system: MOLT-4
NCI-H522 = system: NCI-H522
NCI/ADR-RES = system: NCI/ADR-RES
SF-295 = system: SF-295
SK-MEL-2 = system: SK-MEL-2
T47D = system: T47D
TK-10 = system: TK-10
UACC-257 = system: UACC-257
OVCAR-5 = system: OVCAR-5
SF-539 = system: SF-539
SN12C = system: SN12C
HCC 2998 = system: HCC 2998

Row | SMILES | GI50 (786-0) | GI50 (A549) | GI50 (CCRF-CEM) | GI50 (COLO 205) | GI50 (DU-145) | GI50 (HL-60) | GI50 (HOP-92) | GI50 (MDA-MB-435) | GI50 (MOLT-4) | GI50 (NCI-H522) | GI50 (NCI/ADR-RES) | GI50 (SF-295) | GI50 (SK-MEL-2) | GI50 (T47D) | GI50 (TK-10) | GI50 (UACC-257) | GI50 (OVCAR-5) | GI50 (SF-539) | GI50 (SN12C) | GI50 (HCC 2998)
1 | COc1cccc2c1[C@H](OC)[C@]13O[C@@]1(C2=O)[C@H](O)[C@H](C)[C@@](O)(C(=O)[C@@H]1O[C@H]1C)[C@@H]3O | 0.264 µM (active) | 0.199 µM (active) | 0.155 µM (active) | 0.165 µM (active) | 0.282 µM (active) | 0.31 µM (active) | 0.194 µM (active) | 0.214 µM (active) | 0.299 µM (active) | 0.185 µM (active) | 0.337 µM (active) | 0.218 µM (active) | 0.175 µM (active) | 0.313 µM (active) | 0.318 µM (active) | 0.225 µM (active) |  |  |  | 
2 | O=C(O)CCNCC(=O)O | > 100 µM (inactive) | > 100 µM (inactive) | > 100 µM (inactive) | > 100 µM (inactive) | > 100 µM (inactive) | > 100 µM (inactive) | > 100 µM (inactive) | > 100 µM (inactive) | > 100 µM (inactive) | > 100 µM (inactive) | > 100 µM (inactive) | > 100 µM (inactive) | > 100 µM (inactive) | > 100 µM (inactive) | > 100 µM (inactive) | > 100 µM (inactive) | > 100 µM (inactive) | > 100 µM (inactive) | > 100 µM (inactive) | 
3 | CS/C(C#N)=C(\C#N)SC | 4.89 µM (inactive) | 30.4 µM (inactive) | 5.6 µM (inactive) | 3.06 µM (inactive) | 13.6 µM (inactive) | 1.79 µM (inactive) |  | 14 µM (inactive) | 0.233 µM (active) | 1.42 µM (inactive) | 18.8 µM (inactive) | 18.5 µM (inactive) | 12.4 µM (inactive) | 4.19 µM (inactive) | 6.55 µM (inactive) | 10.9 µM (inactive) | 26.3 µM (inactive) | 9.64 µM (inactive) | 11.2 µM (inactive) | 2.99 µM (inactive)
4 | Cn1cc(NC(=O)Nc2cc(C(=O)Nc3cc(C(=O)Nc4cc(S(=O)(=O)O)c5cc(S(=O)(=O)O)cc(S(=O)(=O)O)c5c4)n(C)c3)n(C)c2)cc1C(=O)Nc1cc(C(=O)Nc2cc(S(=O)(=O)O)c3cc(S(=O)(=O)O)cc(S(=O)(=O)O)c3c2)n(C)c1 | > 100 µM (inactive) | > 100 µM (inactive) | > 100 µM (inactive) | > 100 µM (inactive) | > 100 µM (inactive) | > 100 µM (inactive) | 62.7 µM (inactive) | > 100 µM (inactive) | > 100 µM (inactive) | > 100 µM (inactive) | > 100 µM (inactive) | > 100 µM (inactive) |  | > 100 µM (inactive) | 87.1 µM (inactive) | > 100 µM (inactive) | > 100 µM (inactive) | > 100 µM (inactive) | > 100 µM (inactive) | > 100 µM (inactive)
5 | OC1(C(Sc2cc(C(F)(F)F)cc(C(F)(F)F)c2)Sc2cc(C(F)(F)F)cc(C(F)(F)F)c2)C=CCCC1 (centres undefined) | 2.39 µM (inactive) | 1.63 µM (inactive) | 1.61 µM (inactive) | 1.99 µM (inactive) | 2.53 µM (inactive) | 1.38 µM (inactive) | 2.83 µM (inactive) | 1.86 µM (inactive) | 1.65 µM (inactive) | 1.74 µM (inactive) | 2.93 µM (inactive) | 1.86 µM (inactive) |  | 1.25 µM (inactive) | 1.51 µM (inactive) | 1.2 µM (inactive) | 0.847 µM (active) |  | 2.14 µM (inactive) | 1.4 µM (inactive)
6 | CC(C)CCC1(CCN)C(=O)NC(=O)NC1=O | > 100 µM (inactive) | > 100 µM (inactive) | 19.6 µM (inactive) | > 100 µM (inactive) | > 100 µM (inactive) | 38.2 µM (inactive) | > 100 µM (inactive) | > 100 µM (inactive) | 16.2 µM (inactive) | > 100 µM (inactive) | > 100 µM (inactive) | > 100 µM (inactive) | > 100 µM (inactive) | > 100 µM (inactive) | > 100 µM (inactive) | > 100 µM (inactive) | > 100 µM (inactive) | > 100 µM (inactive) | > 100 µM (inactive) | 
7 | CC(=O)/C=C/CCC(=O)/C=C/C(=O)OC(CCC(=O)/C=C/C(=O)O)CC(C)=O (centres undefined) | > 100 µM (inactive) | > 100 µM (inactive) | 43.8 µM (inactive) | > 100 µM (inactive) | > 100 µM (inactive) | 32.8 µM (inactive) | > 100 µM (inactive) | > 100 µM (inactive) | > 100 µM (inactive) | 96.4 µM (inactive) | > 100 µM (inactive) | > 100 µM (inactive) |  | > 100 µM (inactive) | > 100 µM (inactive) | > 100 µM (inactive) | > 100 µM (inactive) | > 100 µM (inactive) | > 100 µM (inactive) | > 100 µM (inactive)
